# Measured values taken from patent publication US7273848B2, “Apolipoprotein A-I agonists and their use to treat dyslipidemic disorders” (priority 1997, dated 2007).
# Non-standard residues stand in square brackets, D forms with d. Residues, ends and D or L forms follow the SMILES beside them. No end group written: not given here. 1Nal = N[C@@H](Cc1cccc2ccccc12)C(=O)O; Aib = CC(C)(N)C(=O)O
# Key:
# [1] = target: T1, LCAT (purified from human plasma) (Homo sapiens, UniProt P04180); assay: LCAT activation assay; assay type: biochemical; details: LCAT activation as compared with native human ApoA-I (= 100%), equivalent masses
# T1 construct: from tissue; host or cells: human plasma
# T1 sequence (P04180 25-440): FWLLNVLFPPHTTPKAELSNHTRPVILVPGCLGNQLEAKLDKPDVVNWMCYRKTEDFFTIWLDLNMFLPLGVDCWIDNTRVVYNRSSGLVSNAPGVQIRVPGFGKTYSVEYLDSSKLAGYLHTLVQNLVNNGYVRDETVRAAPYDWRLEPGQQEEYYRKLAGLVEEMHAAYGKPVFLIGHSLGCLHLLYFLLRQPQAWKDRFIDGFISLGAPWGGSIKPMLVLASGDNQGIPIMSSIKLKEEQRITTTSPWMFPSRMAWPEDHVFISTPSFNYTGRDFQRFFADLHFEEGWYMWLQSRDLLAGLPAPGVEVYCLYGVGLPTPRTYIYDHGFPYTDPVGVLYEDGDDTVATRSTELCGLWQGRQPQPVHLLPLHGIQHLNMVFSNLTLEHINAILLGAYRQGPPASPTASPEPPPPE
# Procedure, shortened: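 Activity was expressed as percentage conversion of radiolabelled cholesterol to cholesteryl ester, normalised to native ApoA-I as 100%. LCAT purified from human plasma was added to peptide-preincubated EPC or POPC/cholesterol (20:1) small unilamellar vesicles at pH 7.4. Specific activity is the peptide concentration reaching the conversion plateau at a fixed timepoint.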
# [2] = Circular dichroism helicity determination; assay type: physicochemical; details: percent helicity; for He (%) TFE: 5 μM peptide, 90% vol TFE; for He (%) TFE / He (%) SUVs: 37° C.; for He (%) free: unbound peptide 5 μM in 5 mM phosphate buffer, pH 7.4, 37° C.; for He (%) mics: peptide-micelle complexes, Ri=100, 37° C.; for He (%) SUVs: peptide-SUV complexes (20:1 EPC:Chol., Ri=30 and Ri=50)
# Procedure, shortened: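 Far-UV CD (190–260 nm) at 37° C on 5 μM peptide in 5 mM phosphate pH 7.4, free, with EPC:Chol 20:1 SUVs (Ri 30 or 50), lysophosphatidylcholine micelles (Ri 100) or 90% TFE. Spectra converted to molar ellipticity per residue; helicity from 222 nm ellipticity or CONTIN fitting to reference spectra, ±5%.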
Compound,ACTIVITY (%) LCAT [1] [%],He (%) TFE [2] [%],He (%) free [2] [%],He (%) mics [2] [%],He (%) SUVs [2] [%]
CC(C)C[C@H](NC(=O)[C@H](C)NC(=O)[C@H](CC(=O)O)NC(=O)[C@H](CC(C)C)NC(=O)[C@H](CC(C)C)NC(=O)[C@H](CCCNC(=N)N)NC(=O)[C@H](CCC(=O)O)NC(=O)[C@H](CC(C)C)NC(=O)[C@H](CC(C)C)NC(=O)[C@H](CC(N)=O)NC(=O)[C@H](CCC(=O)O)NC(=O)[C@H](Cc1ccccc1)NC(=O)[C@H](CC(C)C)NC(=O)[C@H](CCC(=O)O)NC(=O)[C@H](CC(C)C)NC(=O)[C@@H](NC(=O)[C@H]1CCCN1)C(C)C)C(=O)N[C@@H](CCC(N)=O)C(=O)N[C@@H](CCCCN)C(=O)N[C@@H](CCCCN)C(=O)N[C@@H](CC(C)C)C(=O)N[C@@H](CCCCN)C(=O)O [peptide 144] (H-[dP]VLELFENLLERLLDALQKKLK-OH),111,95,89,88,–
"DWFKAFYDKVAEKFKEAF [peptide 243, reference compound]",5,–,10,64,50
PVLDLFKELLNELLEALKQKLK [peptide 7],83,73,77,89,85
PLFRELLNELLEALKQKLK [compound 55],19,75,38,72,78
PLDLFRELLNELLEALKQKLK [compound 85],7,69,58,61,64
"DWLKAFYDKVFEKFKEFF [peptide 245, reference compound]",4,–,38,77,70
"CC(C)C[C@H](NC(=O)[C@H](C)NC(=O)[C@H](CCC(=O)O)NC(=O)[C@H](CC(C)C)NC(=O)C(C)(C)NC(=O)[C@H](CCC(=O)O)NC(=O)[C@H](Cc1c[nH]c2ccccc12)NC(=O)[C@H](CC(C)C)NC(=O)[C@H](CC(C)C)NC(=O)[C@H](CCC(=O)O)NC(=O)[C@H](CCCNC(=N)N)NC(=O)[C@H](Cc1ccccc1)NC(=O)[C@H](CC(C)C)NC(=O)[C@H](CC(=O)O)NC(=O)[C@H](CC(C)C)NC(=O)[C@@H](NC(=O)[C@@H]1CCCN1)C(C)C)C(=O)N[C@@H](CCCCN)C(=O)N[C@@H](CCC(N)=O)C(=O)N[C@@H](CCCCN)C(=O)N[C@@H](CC(C)C)C(=O)N[C@@H](CCCCN)C(=O)O [compound 50, PVLDLFRELLWEXLEALKQKLK] (H-PVLDLFRELLWE[Aib]LEALKQKLK-OH)",21,76,68,84,89
"CC(C)C[C@H](NC(=O)[C@H](CCCCN)NC(=O)[C@H](CCC(N)=O)NC(=O)[C@H](CCCCN)NC(=O)[C@H](CC(C)C)NC(=O)[C@H](Cc1cccc2ccccc12)NC(=O)[C@H](CCC(=O)O)NC(=O)[C@H](CC(C)C)NC(=O)[C@H](CC(C)C)NC(=O)[C@H](CCC(=O)O)NC(=O)[C@H](CC(N)=O)NC(=O)[C@H](CC(C)C)NC(=O)[C@H](CC(C)C)NC(=O)[C@H](CCC(=O)O)NC(=O)[C@H](CCCNC(=N)N)NC(=O)[C@H](Cc1ccccc1)NC(=O)[C@H](CC(C)C)NC(=O)[C@H](CC(=O)O)NC(=O)[C@H](CC(C)C)NC(=O)[C@@H](NC(=O)[C@@H]1CCCN1)C(C)C)C(=O)N[C@@H](CCCCN)C(=O)O [peptide 1, PVLDLFRELLNELLEZLKQKLK] (H-PVLDLFRELLNELLE[1Nal]LKQKLK-OH)",120,69,77,85,81
GVLELFENLLERLLDALQKKLK [peptide 145],100,58,55,51,–
PVLDLFRELLNELLQKLK [compound 209],47,62,54,71,67
PVLDLFREWLNELLEALKQKLK [compound 37],29,73,65,75,76
PVLELFENLLERLLDAWQKKLK [compound 164],24,61,37,66,51
"CC(C)C[C@H](NC(=O)[C@H](C)NC(=O)[C@H](CCC(=O)O)NC(=O)[C@H](CC(C)C)NC(=O)C(C)(C)NC(=O)[C@H](CCC(=O)O)NC(=O)[C@H](CC(N)=O)NC(=O)[C@H](CC(C)C)NC(=O)[C@H](CC(C)C)NC(=O)[C@H](CCC(=O)O)NC(=O)[C@H](CCCNC(=N)N)NC(=O)[C@H](Cc1ccccc1)NC(=O)[C@H](CCC(=O)O)NC(=O)[C@H](CC(=O)O)NC(=O)[C@H](CC(C)C)NC(=O)[C@@H](NC(=O)[C@@H]1CCCN1)C(C)C)C(=O)N[C@@H](CCCCN)C(=O)N[C@@H](CCC(N)=O)C(=O)N[C@@H](CCCCN)C(=O)N[C@@H](CC(C)C)C(=O)N[C@@H](CCCCN)C(=O)O [compound 91, PVLDEFRELLNEXLEALKQKLK] (H-PVLDEFRELLNE[Aib]LEALKQKLK-OH)",6,100,43,100,–
"DWLKAFYDKVAEKLKEAF [peptide 244, reference compound]",5,48,9,40,13
Ac-PVLELFRELLEELKQKLK-NH2 [compound 194],88,93,38,93,–
"CC(C)C[C@H](NC(=O)[C@H](C)NC(=O)[C@H](CCC(=O)O)NC(=O)[C@H](CC(C)C)NC(=O)C(C)(C)NC(=O)[C@H](CCC(=O)O)NC(=O)[C@H](CC(N)=O)NC(=O)[C@H](CC(C)C)NC(=O)[C@H](CC(C)C)NC(=O)[C@H](CCC(=O)O)NC(=O)[C@H](CCCNC(=N)N)NC(=O)[C@H](Cc1ccccc1)NC(=O)[C@H](Cc1ccccc1)NC(=O)[C@H](CC(=O)O)NC(=O)[C@H](CC(C)C)NC(=O)[C@@H](NC(=O)[C@@H]1CCCN1)C(C)C)C(=O)N[C@@H](CCCCN)C(=O)N[C@@H](CCC(N)=O)C(=O)N[C@@H](CCCCN)C(=O)N[C@@H](CC(C)C)C(=O)N[C@@H](CCCCN)C(=O)O [peptide 25, PVLDFFRELLNEXLEALKQKLK] (H-PVLDFFRELLNE[Aib]LEALKQKLK-OH)",51,93,46,82,–
"CC(C)C[C@H](NC(=O)[C@H](C)NC(=O)[C@H](CCC(=O)O)NC(=O)[C@H](CC(C)C)NC(=O)C(C)(C)NC(=O)[C@H](CCC(=O)O)NC(=O)[C@H](CC(N)=O)NC(=O)[C@H](CC(C)C)NC(=O)[C@H](CC(C)C)NC(=O)[C@H](CCC(=O)O)NC(=O)[C@H](CCCNC(=N)N)NC(=O)[C@H](Cc1c[nH]c2ccccc12)NC(=O)[C@H](CC(C)C)NC(=O)[C@H](CC(=O)O)NC(=O)[C@H](CC(C)C)NC(=O)[C@@H](NC(=O)[C@@H]1CCCN1)C(C)C)C(=O)N[C@@H](CCCCN)C(=O)N[C@@H](CCC(N)=O)C(=O)N[C@@H](CCCCN)C(=O)N[C@@H](CC(C)C)C(=O)N[C@@H](CCCCN)C(=O)O [compound 41, PVLDLWRELLNEXLEALKQKLK] (H-PVLDLWRELLNE[Aib]LEALKQKLK-OH)",25,69,53,73,85
